Here are results for 97 molecules from ChEMBL document CHEMBL3507680, “University of Dundee, Gates Library screen for HepG2 cell viability”.

This data set can be described thus: Human HepG2 cell viability assay in 384 well format. It counts as toxicity, cell-based. On the set-up: dose 125 nL, time 70.5 hour; concentration not given beside the values. To be noted: HepG2 cells, read-out: Inhibition.
With `O=C1CC(c2ccccc2)C2(CCN(C(=O)c3cnccn3)CC2)N1` (configuration not stated), the cytotoxicity at 70.5 h was -8.06%.
The same measure for `Cc1cccc(CN2CCn3cc(CNC(=O)CC4CC4)nc3C2)n1`: -5.24%; for `Cc1noc(C)c1CN1CC[C@H](OCC2CC2)[C@@H](Cc2ccccc2)C1`: 3.46%.
The value for `c1ccc(CN2C[C@@H]3OCCN(c4cccnc4)[C@@H]3C2)nc1` was -12.2%.
The same measure for `Fc1ccccc1CN1C[C@@H]2OCCN(c3ncccn3)[C@@H]2C1`: -13.2%; for `Cn1ccnc1CN1C[C@@H]2OCCN(c3ncccn3)[C@@H]2C1`: -16.1%.
For the molecule `O=C(c1ccco1)N1CCO[C@@H]2CNCC[C@@H]2C1`, the cytotoxicity at 70.5 h was found to be 32.1%.
The same measure for `CCC(NC(=O)c1cc(CC(C)C)nn1C)c1cccc(C)n1` (configuration not stated): 8.39%.
Consider `Cc1nc(N(C)C)nc(N(C)CCc2ccncc2)c1C`, for which the cytotoxicity at 70.5 h was -15.2%.
With `Cn1ccc2c(-c3cc(N)nc(N4CCOCC4)n3)ccnc21`, the cytotoxicity at 70.5 h worked out at 1.46%.
The value for `CCCc1nnc(N2CCN(c3ccccc3F)CC2)o1` was 13.5%.
The value for `Nc1nc(CCCNC(=O)C2CCCN(Cc3ccco3)C2)cs1` (configuration not stated) was 8.32%.
On to `O=C(C1CCCN(C2CCOCC2)C1)N1CCc2ncccc2C1` (configuration not stated), for which the cytotoxicity at 70.5 h was -4.26%.
Turning to `Cc1cccnc1CN1CCN(c2noc(-c3ccccc3)n2)CC1`, the cytotoxicity at 70.5 h is 7.94%.
The same measure for `CC(C)Nc1ccnc(N2Cc3cnc(C(C)(C)C)nc3C2)n1`: 17.3%.
The value for `CCC(C(=O)NC1CCN(S(C)(=O)=O)CC1)n1cccn1` (configuration not stated) was -7.66%; that for `CC(C)n1cnnc1CN1C(=O)CCc2ccccc21` was -1.8%; that for `CCc1nc2c(c(N3CCOCC3)n1)CCN(C(=O)c1ccon1)CC2` was 6.74%.
The value for `Cc1nn(C)c(C)c1C(C)NC(=O)c1cc(CN2CCC(O)CC2)on1` (configuration not stated) was -5.78%; that for `CC(C)(C)c1ncc(C(=O)N2CCN(C(=O)c3ccc[nH]3)CC2)c(O)n1` was -2.76%.
`O=C(c1cccc(C2CCNC2)c1)N1CCC(N2CCC(O)CC2)CC1` (configuration not stated): the cytotoxicity at 70.5 h was determined as 44.2%.
The value for `CC(C)[C@@H]1CN(C(=O)NCc2ccco2)C[C@H]1NS(=O)(=O)N(C)C` was 17.9%.
In the case of `COc1ccccc1OCCn1c(C)c(C)oc1=O`, the cytotoxicity at 70.5 h came out at 23.3%.
The same measure for `CNc1nc(C(=O)N2C[C@H]3CC[C@@H]2CN(S(C)(=O)=O)C3)cs1`: 12%; for `Cc1cc(C)nc(NC2CC(=O)N(C)C2)n1` (configuration not stated): -8.75%.
The value for `Cc1ncsc1C(=O)N1CC[C@@]2(O)CCN(C(=O)N3CCCC3)C[C@H]2C1` was 12.8%; that for `COc1cc(F)ccc1C(C(=O)O)N(C)Cc1ccon1` (configuration not stated) was -7.03%.
The value for `CCCc1cnc(C)nc1NC(C)Cc1cnccn1` (configuration not stated) was -5.97%; that for `Cc1ccc(CN2CCCC(c3nnc(CN4CCCCC4)n3C)C2)s1` (configuration not stated) was 4.84%.
Take `Cc1cc2c(=O)n(CCSc3cnn[nH]3)cnc2s1`: the cytotoxicity at 70.5 h is -12.3%.
The value for `CCC(C(=O)N1CCS(=O)(=O)CC1)n1cccn1` (configuration not stated) was -4.81%.
The value for `Cc1cccc2c1nc(CCO)n2-c1ccc(C(=O)N2CCCC2)o1` was 12.9%; that for `CCNC(=O)[C@@H]1C[C@H](N)CN1Cc1ccc(Sc2ccc(C)cc2)o1` was -13.8%.
For `CCCc1nc(C(=O)NCCN2CCC(c3ccccc3C)C2)cs1` (configuration not stated), the cytotoxicity at 70.5 h amounted to 0.739%.
For the molecule `CCC[C@H]1CN(C(=O)c2ccc3[nH]c(CO)nc3c2)C[C@@H]1N`, the cytotoxicity at 70.5 h is -27.1%.
The value for `Cn1cc(C(=O)N2CCCC(c3ncc[nH]3)C2)cn1` (configuration not stated) was -7.17%; that for `CSCC(=O)NC1CC(=O)N(CCc2ccccc2)C1` (configuration not stated) was -10.9%; that for `CCCN1CCN(C(=O)c2ccc3nc(C)oc3c2)[C@H]2CS(=O)(=O)C[C@H]21` was -7.59%.
As to `COC(=O)c1ccc(C(=O)N2CCCC(Nc3ccc(F)cc3)C2)cc1` (configuration not stated), the cytotoxicity at 70.5 h is -1.16%.
For the molecule `COc1ccc2c(c1)C(C(=O)NCCN1CCNC1=O)CC(=O)N2` (configuration not stated), the cytotoxicity at 70.5 h stood at 16.8%.
The value for `CC(C)N1CC(C(=O)N2CCN(CCn3cccc3)CC2)CC1=O` (configuration not stated) was -3.03%; that for `Cn1nccc1C(=O)N1CCCC1c1ccc(C(=O)N2CCOCC2)s1` (configuration not stated) was 0.297%; that for `OCC1(O)CCCN(Cc2nnc(-c3ccccc3)o2)CC1` (configuration not stated) was -7.78%.
The value for `CCNc1ncc(C(=O)NC2CCc3ccccc3C2)cn1` (configuration not stated) was 54.4%.
The same measure for `CC(=O)NCCNC(=O)C(c1ccccc1C)N(C)C` (configuration not stated): 12.4%; for `CCCSCC(=O)N1C[C@@H]2CC[C@H](C1)N(Cc1ccccn1)C2=O`: -5.83%.
Take `Fc1ccccc1CC1CCN(Cc2ccccn2)CC1`: the cytotoxicity at 70.5 h was -5.22%.
The same measure for `CCC[C@@H]1CN(C(=O)c2c(F)ccc(OC)c2F)C[C@H]1C(=O)O`: -0.545%.
The value for `CN1CCN([C@@H]2CCN(CC3=Cc4cc(Cl)ccc4OC3)C[C@H]2O)CC1` was -0.445%.
The same measure for `Cc1nc(CN(C)C(=O)Nc2cccc(C)c2C)no1`: -9.32%.
For `CCn1c(Cn2cncn2)nnc1C1CCN(C2CCOCC2)CC1`, the cytotoxicity at 70.5 h amounted to 34.9%.
The same measure for `CC(=O)NC(C)C1=CCCN(Cc2ccc(C(=O)O)cc2)C1` (configuration not stated): 2.27%; for `O=C1O[C@@H]2CN(Cc3ccncc3)C[C@@H]2N1CCCN1CCOCC1`: -3.93%; for `Cc1ccc2cc(CN(C)Cc3ccncn3)c(=O)[nH]c2c1`: -13.2%.
The same measure for `CCN(Cc1noc(C)n1)C(=O)C(c1cccc(C)c1)N(C)C` (configuration not stated): 10.7%.
As to `CCN(CCN1CCCCCC1)C(=O)COc1cccnc1`, the cytotoxicity at 70.5 h worked out at 16%.
Regarding `COc1ccccc1[C@@H]1CN(Cc2ccncc2)C[C@H]1C(=O)O`, the cytotoxicity at 70.5 h is 9.71%.
The same measure for `c1cn(-c2ccc(N3CCC(NC4CC4)CC3)cc2)cn1`: -14.2%; for `CC(C)CC(O)C1CCN(C(=O)c2coc(CN3CCOCC3)c2)CC1` (configuration not stated): -7.32%.
The value for `O=C(Cn1ccc(=O)cc1)NCc1ccc2sccc2c1` was -7.85%; that for `O=C1OCC(CO)N1Cc1cccc(Cl)c1F` (configuration not stated) was 26.5%; that for `O=C(c1ccccc1)C1CCN(C(=O)CC2COCCN2)CC1` (configuration not stated) was 1.52%.
Consider `CN(C)S(=O)(=O)NCc1cccnc1Oc1ccc(F)c(F)c1`, for which the cytotoxicity at 70.5 h is -4.24%.
The value for `CC(C)Nc1cc(N2CCC(n3cc(CCO)nn3)CC2)ncn1` was 16.9%; that for `CN1[C@H]2CC[C@@H]1CN(c1nc(-c3ccncc3)nc3c1cnn3C)CC2` was -2.38%.
With `c1ccc(-c2nnc(N3CCCC4(CCOC4)C3)s2)cc1` (configuration not stated), the cytotoxicity at 70.5 h amounted to 1.41%.
In the case of `O=C(c1cncc(NCC2COc3ccccc3C2)n1)N1CCOCC1` (configuration not stated), the cytotoxicity at 70.5 h is -7.07%.
For the molecule `COc1ccc(OCc2cc(C(=O)N3CCCCO3)n[nH]2)c(Cl)c1`, the cytotoxicity at 70.5 h is -19.5%.
Consider `CCc1ncc(C(=O)N2CC[C@@H]3CC[C@H](C2)N3C)cn1`, for which the cytotoxicity at 70.5 h was -14%.
With `O=C(CN1CCNC1=O)N1CCc2nnc(-c3ccccc3)n2CC1`, the cytotoxicity at 70.5 h was -1.95%.
The value for `CCn1nc(C)c(NC(=O)CN(C)C(C)c2nccs2)c1C` (configuration not stated) was -6.95%; that for `Cc1cccnc1CNC(=O)CC1C(=O)NCCN1CC(C)(C)C` (configuration not stated) was -10.2%.
The same measure for `CCc1cc(CN(C)C(=O)c2cnn[nH]2)on1`: -9.04%; for `Cc1ccccc1C(C(=O)NCCS(C)(=O)=O)N(C)C` (configuration not stated): -14.5%; for `O=C1CCCCCN1Cc1nc(C2(c3ccc(F)cc3)CCOC2)no1` (configuration not stated): 18.4%.
As to `COCCNc1cc(-c2ccccc2S(N)(=O)=O)c2cc[nH]c2n1`, the cytotoxicity at 70.5 h was -7.36%.
The same measure for `CC(C)n1cnnc1CN(C)C(=O)c1ccccc1-n1cncn1`: 0.803%; for `O=C1N(CC2CC2)CCCC1(O)CN1CCc2[nH]ncc2C1` (configuration not stated): -4.29%.
The same measure for `c1cnn(CCC2CCN(Cc3ccc4[nH]ccc4c3)CC2)c1`: 0.43%; for `Cc1nc(O)cc(CN2CCC=C(CN(C)C(=O)c3ccco3)C2)n1`: -14.2%.
The same measure for `CCCS(=O)(=O)c1ncc(CN2CCC(C)CC2)n1CC1CCCO1` (configuration not stated): -2.16%.
For `c1csc(CN2CCc3c(CNc4nncs4)cncc3C2)c1`, the cytotoxicity at 70.5 h was -9.12%.
The value for `c1cnc(NCc2cncc3c2CCN(Cc2cccnc2)C3)nc1` was -5.03%.
The same measure for `O=C(c1ccsc1)N1C[C@@H]2CCN(c3cccnc3)C[C@@H]2C1`: -6.89%; for `CCn1cc2c(n1)CN(Cc1ccc(C)o1)CC2COCC1CC1` (configuration not stated): -5.09%; for `CCn1cc2c(n1)CN(Cc1sccc1C)CC2COCC1CC1` (configuration not stated): -7.71%.
The same measure for `CN(C)C(=O)N1Cc2ncn(C)c2C(COCC2CCOCC2)C1` (configuration not stated): -11.9%; for `Cn1cncc1CN1C[C@@H]2OCCN(c3ncccn3)[C@@H]2C1`: -9.56%.
As to `O=C(c1ccc(O)cc1)N1C[C@@H]2CCN(c3cccnc3)C[C@@H]2C1`, the cytotoxicity at 70.5 h turned out to be 22.7%.
The same measure for `CC(C)CN1C(=O)C[C@@H]2[C@@H]1CCN2Cc1cccc(C#N)c1`: 2.48%; for `Cn1cc(CN2C[C@@H]3OCCN(c4ncccn4)[C@@H]3C2)cn1`: 1.07%; for `O=C1[C@H]2CN(Cc3ccoc3)C[C@H]2CN1Cc1cccnc1`: -11.8%.
As for `c1cnc(N2CCO[C@H]3CN(Cc4ccsc4)C[C@H]32)nc1`, the cytotoxicity at 70.5 h is -14.2%.
The value for `COCC1CN(Cc2c(C)noc2C)Cc2ccnn2C1` (configuration not stated) was -9.74%.
On to `c1ccc(COC[C@@H]2CCC[C@]23CN(Cc2nccs2)CCO3)nc1`, for which the cytotoxicity at 70.5 h worked out at 5.78%.
The same measure for `c1ccc(CN2CCn3c(Cn4cncn4)cnc3C2)nc1`: -10.2%.
The value for `COCCNC(=O)C1CN(Cc2cccnc2)Cc2ccnn2C1` (configuration not stated) was -13.8%.
